“Also recorded” adds a separate entry of the source.
Tests used:
Format in all cases: cell-based, human
HES3-MIXL1-GFP hESCs [1] = assay: Static primitive streak induction cultures with chemical modulation of Wnt signals
Protocol: HES3-MIXL1-GFP hESCs maintained in mTeSR-1/Matrigel cultures were detached with TrypLE Express, seeded at 7.5×10^4 cells/cm^2 into 24-well plates coated with a limiting dilution of hESC-qualified Matrigel and allowed to attach overnight, after which cultures were typically ˜60% confluent. MIXL1-GFP expression was then induced by differentiating in RPMI B27 medium with 10 ng/ml BMP-4 and 6 ng/ml Activin A (both R&D Systems) for 2.5 d with optional addition of 5 μM IWP-4 and 5 μM CHIR99021 (both Stemgent), or 0.1% v/v DMSO vehicle control.
Although such paracrine factor dependencies and negative feedback signals regulating mesendoderm specification are clearly necessary developmental drivers in a transient in vivo structure such as primitive streak, they inevitably reduce efficiency of in vitro differentiation. It was therefore tested whether the outcomes of modulating positive and negative paracrine regulators in the array could be translated to optimise directed differentiation protocols in conventional static cultures.

HES3-MIXL1-GFP hESCs [2] = assay: Primitive streak array screening of CHIR99021, conditioned medium and IWP-4 (MIXL1-GFP reporter); settings: background RPMI B27 with 10 ng/mL BMP-4 and 6 ng/mL Activin A, continuous flow
Protocol: For use in apparatus 300, conditioned medium was recovered from static controls differentiated in 10 ng/mL BMP-4 and 6 ng/mL Activin A in RPMI B27 medium. Cells were removed by centrifugation and supernatant medium stored at 4° C. Media from days 1 and 2 were mixed and BMP-4 and Activin A re-supplemented at 50% of nominal levels before use in arrays.

HES3-MIXL1-GFP hESCs [3] = assay: Primitive streak differentiation screening in array of BIO, BMP-4 and Activin A (MIXL1-GFP reporter)
Protocol: Cells were allowed to attach to the well array 330 for 8-10 h in an incubator (37° C., 5% CO2 in air), then subjected to continuous fluid flow under the specified factor conditions at 60 μL/h total flowrate.
Serial exchange of staining and washing solutions was driven by a syringe pump.
Spot intensities in each channel were linearly transformed about the mean and standard deviation for all spots in that channel in an individual array, by IEOS-GFP=(TEOS-GFP−μEOS-GFP)/σEOS-GFP, where IEOS-GFP is the expression index of EOS-GFP, and μEOS-GFP is the mean and σEOS-GFP the standard deviation of all TEOS-GFP for a particular array. This provides expression indices (IEOS-GFP, IMIXL1-GFP) rating each spot's intensity in terms of global standard deviations relative to the global mean.
Factorial analyses are performed on expression index data with MINITAB 15 software (Minitab Inc.). Expression indices were designated as response variables and soluble factors designated as inputs. A fourth input variable, ‘Position’, was defined based on each culture well's row coordinate in the array. Effect magnitudes were then generated by MINITAB according to methods described elsewhere^45. Pearson product-moment correlation coefficients (rX,Y), coefficients of determination for linear regression (R^2), and Student's t-test statistics were calculated with Microsoft Excel. For Student's t-tests, two-tailed tests were performed for two samples assuming unequal variances, and differences with p<0.05 were considered significant.
HES3-MIXL1-GFP hESCs (also, HES3 MIXL1^GFP/w hESCs; karyotying and in vivo teratomas) growing as a monolayer were differentiated under continual flow in the apparatus 300 for 2.5 d in a full-factorial array of BMP-4, Activin A, and the GSK-3β inhibitor/canonical Wnt activator 6-bromoindirubin-3′-oxime (BIO) in RPMI B27 medium. A screening panel showing array conditions is shown in FIG. 6A, with numbers indicating concentrations of BIO (μM), BMP-4 (ng/mL) and Activin A (ng/mL).

[4] = 2.5 d, continual flow, RPMI B27 medium

Q: Which MIXL1 induction (HES3-MIXL1-GFP hESCs [1]; static controls, FIG. 7H, 5 μM IWP-4) does the source give for `COc1ccccc1-n1c(SCC(=O)Nc2nc3ccc(C)cc3s2)nc2c(c1=O)SCC2` [IWP-4] here?
A: completely blocked MIXL1 induction

Q: For `Cc1c[nH]c(-c2cnc(NCCNc3ccc(C#N)cn3)nc2-c2ccc(Cl)cc2Cl)n1` [CHIR99021], which “effect on MIXL1-GFP expression level and position in the array” value (HES3-MIXL1-GFP hESCs [2]) is on record?
A: only shifted expression up marginally; also recorded: produced an extended streak of MIXL1-GFP expression

Q: What about the “effect on MIXL1-GFP expression level and position in the array” value (HES3-MIXL1-GFP hESCs [2]; listed as CHIR) of the same molecule?
A: both improved the expression level and broadened the number of rows over which appreciable expression extended

Q: And the “MIXL1-GFP induction, % of cells” value (HES3-MIXL1-GFP hESCs [1]; 5 μM CHIR99021 added to RPMI B27+10 ng/mL BMP-4+6 ng/mL Activin A, 2.5 d, 51% under standard conditions)?
A: 86%

Q: Which “optimum concentration for expression index IMIXL1-GFP (factorial analysis)” value (HES3-MIXL1-GFP hESCs [3]; 2.5 d, continual flow, RPMI B27 medium, levels 0, 1, 2 μM) does the source give for `O=C1Nc2cc(Br)ccc2/C1=C1/Nc2ccccc2/C1=N\O` [BIO, 6-bromoindirubin-3′-oxime] here?
A: 1 µM

Q: And the “number of rows over which bright MIXL1-GFP expression extended” value (HES3-MIXL1-GFP hESCs [3]; column 15: 1 μM BIO with 10 ng/mL BMP-4, 6 ng/mL Activin A, single peak at row 7 without BIO)?
A: 4-5 rows

B1: Activin A: soluble growth factor (R&D Systems) used for primitive streak induction (protein, UniProt P08476 311-426, looked up)
Inhibin beta A chain: GLECDGKVNICCKKQFFVSFKDIGWNDWIIAPSGYHANYCEGECPSHIAGTSGSSLSFHSTVINHYRMRGHSPFANLKSCCVPTKLRPMSMLYYDDGQNIIKKDIQNMIVEECGCS
Q: For B1, which “dependence of expression index IMIXL1-GFP on factor (factorial analysis)” value (HES3-MIXL1-GFP hESCs [3]; [4]) is on record?
A: linear, positive dependence

B2: BMP-4: soluble growth factor (R&D Systems) used for primitive streak induction (protein, UniProt P12644 293-408, looked up)
Bone morphogenetic protein 4: SPKHHSQRARKKNKNCRRHSLYVDFSDVGWNDWIVAPPGYQAFYCHGDCPFPLADHLNSTNHAIVQTLVNSVNSSIPKACCVPTELSAISMLYLDEYDKVVLKNYQEMVVEGCGCR
Q: B2 was tested. Which “optimum concentration for expression index IMIXL1-GFP (factorial analysis)” value (HES3-MIXL1-GFP hESCs [3]; [4]) did it give?
A: 10 ng/mL
